Experimental findings from ChEMBL document CHEMBL1143209, “Ohioensins F and G: protein tyrosine phosphatase 1B inhibitory benzonaphthoxanthenones from the Antarctic moss Polytrichastrum alpinum” (Bioorg Med Chem Lett, 2008) are described below.

Structures are written as SMILES.

In assay [1] the target is T1, Tyrosine-protein phosphatase non-receptor type 1 (Homo sapiens, UniProt P18031).
T1 sequence (P18031 whole entry): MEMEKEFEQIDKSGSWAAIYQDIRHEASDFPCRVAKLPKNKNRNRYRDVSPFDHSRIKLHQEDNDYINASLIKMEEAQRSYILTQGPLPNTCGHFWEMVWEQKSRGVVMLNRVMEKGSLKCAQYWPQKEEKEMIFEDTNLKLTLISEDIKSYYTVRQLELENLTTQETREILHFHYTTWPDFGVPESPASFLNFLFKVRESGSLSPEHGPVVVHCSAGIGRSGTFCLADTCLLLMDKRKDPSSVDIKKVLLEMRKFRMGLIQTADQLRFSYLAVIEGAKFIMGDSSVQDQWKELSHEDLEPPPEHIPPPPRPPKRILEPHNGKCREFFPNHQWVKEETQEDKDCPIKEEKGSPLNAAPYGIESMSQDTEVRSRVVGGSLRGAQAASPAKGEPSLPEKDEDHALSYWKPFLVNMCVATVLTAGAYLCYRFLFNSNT
As to the kind of experiment: Inhibition of human recombinant PTP1B.

The target in assay [2] is T1, Tyrosine-protein phosphatase non-receptor type 1. The experiment in a line: Inhibition of human recombinant PTP1B by Lineweaver-Burke plot.

As a reminder, the IC50 is the concentration needed to halve the response being measured. The Ki is the dissociation constant of the complex between target and ligand, obtained from inhibition or displacement.

In the case of `O=C1C[C@@H]2c3ccccc3O[C@H]3c4cc(O)ccc4-c4c(O)cc(O)c1c4[C@H]23` [OHIOENSIN A], the IC50 in assay [1] was 4.3 µM.

Take `COc1cc(O)c2c3c1-c1c(O)cccc1[C@@H]1Oc4ccccc4[C@@H](CC2=O)[C@@H]31` [OHIOENSIN C]: the half-inhibitory concentration (IC50) in assay [1] stood at 7.6 µM.

`O=C1C[C@]2(O)c3ccccc3O[C@H]3c4cc(O)ccc4-c4c(O)cc(O)c1c4[C@@H]32` [OHIOENSIN F]: the half-inhibitory concentration (IC50) in assay [1] stood at 3.5 µM. Also, in assay [2], the inhibition constant (Ki) worked out at 1.5 µM.

For `O=C1c2c(O)cc(O)c3c2[C@@H]2[C@@H](c4ccccc4O[C@H]2c2cccc(O)c2-3)[C@H]1O` [OHIOENSIN G], the IC50 in assay [1] worked out at 5.6 µM.
